Values of other authors as cited in US11766438B2, “Pharmaceutical compositions of tofacitinib for oral administration” (Slayback Pharma LLC, priority 2020, dated 2023).
Read-outs that look alike come from different tables or passages of the source.

Question: Which Solubility (aqueous solution of pH 1 to 3.9) does the source give for `C[C@@H]1CCN(C(=O)CC#N)C[C@@H]1N(C)c1ncnc2[nH]ccc12.O=C(O)CC(O)(CC(=O)O)C(=O)O` [Tofacitinib citrate, (3R,4R)-4-methyl-3-(methyl-7H-pyrrolo[2,3-d]pyrimidin-4-ylamino)-β-oxo-1-piperidinepropanenitrile, 2-hydroxy-1,2,3-propanetricarboxylate (1:1)] here?
Answer: 3480 to 28000 µg/mL

Question: And the Solubility (aqueous solution of pH 4.53 to 8)?
Answer: 200 to 590 µg/mL
